Test results as given in US10463644B2, “Uses of sesquiterpene lactone compounds and their derivatives in drugs preparation” (ACCENDATECH, priority 2013, dated 2019).
Where two headings read alike, the source gives them in different places.

Columns and labels:
[1] = tested on: IL-1β secreted by synoviocyte; test: Content of IL-1β in culture supernatant of synoviocyte of RA model rats given test compound; assay type: in vivo; details: rat RA model, dose 30 mg/kg.2d; normal control 0.16 ± 0.034, NaCl 0.49 ± 0.136
Procedure, shortened: (§1)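 Test article is given to RA rats at 30 mg/kg.2d, and synoviocytes are isolated and cultured. Secreted TNF-α and PGE2 in the culture medium are measured by a shared protocol, while IL-1β release is measured by a different protocol. Comparison groups are saline (NaCl) and normal control rats.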

[2] = tested on: PGE2 secreted by synoviocyte; test: Content of PGE2 in culture supernatant of synoviocyte of RA model rats given test compound; assay type: in vivo; details: rat RA model, dose 30 mg/kg.2d; normal control 8.34 ± 1.29, NaCl 32.44 ± 10.32
Procedure, shortened: as §1

[3] = tested on: cancer cells; test: Survival rate of cancer cells after test compound is added (flow cytometry, Annexin V-FITC/PI, clinical specimen); assay type: cell-based, patient; details: Homo sapiens, 18 h, read-out: Survival rate (%) All cells (Stem cells and ordinary cells)
Procedure, shortened: (§2)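 Survival was determined in clinical specimens after an 18 h compound treatment, using Annexin V-FITC/PI apoptosis staining and flow cytometry.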

[4] = tested on: normal cells; test: Survival rate of normal cells after test compound is added (flow cytometry, Annexin V-FITC/PI); assay type: cell-based; details: 18 h
Procedure, shortened: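 Patient specimens (e.g. AML, CD34+/CD38+ stem-cell marker) separated on Ficoll; mononuclear cells at 1×10^6/mL in serum-free IMDM treated 18 h with compound. Cells stained for stem-cell markers, then Annexin V-FITC/PI, and apoptosis measured by flow cytometry within one hour.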

[5] = tested on: cancer stem cells; test: Survival rate of cancer stem cells after test compound is added (flow cytometry, Annexin V-FITC/PI, clinical specimen); assay type: cell-based, patient; details: Homo sapiens, 18 h
Procedure, shortened: as §2

[6] = Head and neck squamous cell carcinomas
[7] = read-out: Survival rate (%) All cells (Stem cells and ordinary cells)
[8] = read-out: Survival rate (%) Stem cells

Compound: C=C1C(=O)O[C@H]2[C@H]1CCC(C)=C1CC[C@@](C)(OC(=O)CCCc3cn(CCCCCCO)nn3)[C@@H]12 [Compound 21]
- Content of IL-1β in culture supernatant of synoviocyte (x ± s) [1]: 0.36 ± 0.057 ng/mL
- Content of PGE2 in culture supernatant of synoviocyte (x ± s) [2]: 19.59 ± 3.25 ng/mL
- viability at 10 µM ([3]; AML): 75%
- viability at 20 µM ([3]; AML): 56%
- viability at 10 µM ([3]; Brain glioma): 79%
- viability at 20 µM ([3]; Brain glioma): 68%
- viability at 10 µM ([3]; Brain tumor): 75%
- viability at 20 µM ([3]; Brain tumor): 62%
- viability at 10 µM ([3]; Breast cancer): 72%
- viability at 20 µM ([3]; Breast cancer): 66%
- viability at 10 µM ([3]; CLL): 63%
- viability at 20 µM ([3]; CLL): 62%
- viability at 10 µM ([3]; CML): 82%
- viability at 20 µM ([3]; CML): 69%
- viability at 10 µM ([3]; Children hepatoblastoma): 81%
- viability at 20 µM ([3]; Children hepatoblastoma): 66%
- viability at 10 µM ([3]; Colon adenocarcinoma): 71%
- viability at 20 µM ([3]; Colon adenocarcinoma): 56%
- viability at 10 µM ([3]; Colorectal cancer): 78%
- viability at 20 µM ([3]; Colorectal cancer): 67%
- viability at 10 µM ([3]; Gastric cancer): 67%
- viability at 20 µM ([3]; Gastric cancer): 55%
- viability at 10 µM ([3]; Gastrointestinal tumor): 75%
- viability at 20 µM ([3]; Gastrointestinal tumor): 58%
- viability at 10 µM ([3]; Glioma): 87%
- viability at 20 µM ([3]; Glioma): 78%
- viability at 10 µM [3, 6]: 86%
- viability at 20 µM [3, 6]: 82%
- viability at 10 µM ([3]; Laryngeal cancer): 73%
- viability at 20 µM ([3]; Laryngeal cancer): 61%
- viability at 10 µM ([3]; Liver cancer): 77%
- viability at 20 µM ([3]; Liver cancer): 61%
- viability at 10 µM ([3]; Lung adenocarcinoma): 67%
- viability at 20 µM ([3]; Lung adenocarcinoma): 64%
- viability at 10 µM ([3]; Lung cancer): 74%
- viability at 20 µM ([3]; Lung cancer): 68%
- viability at 10 µM ([3]; Malignant melanoma): 69%
- viability at 20 µM ([3]; Malignant melanoma): 56%
- viability at 10 µM ([3]; Nasopharynx cancer): 65%
- viability at 20 µM ([3]; Nasopharynx cancer): 56%
- viability at 10 µM ([3]; Ovarian cancer): 64%
- viability at 20 µM ([3]; Ovarian cancer): 57%
- viability at 10 µM ([3]; Pancreatic cancer): 66%
- viability at 20 µM ([3]; Pancreatic cancer): 62%
- viability at 10 µM ([3]; Prostate cancer): 77%
- viability at 20 µM ([3]; Prostate cancer): 65%
- viability at 10 µM ([3]; Retinoblastoma): 65%
- viability at 20 µM ([3]; Retinoblastoma): 59%
- viability at 10 µM ([3]; Skin cancer): 64%
- viability at 20 µM ([3]; Skin cancer): 57%
- viability at 10 µM [4, 7]: 95%
- viability at 10 µM [4, 8]: 94%
- viability at 20 µM [4, 7]: 94%
- viability at 20 µM [4, 8]: 92%
- viability at 10 µM ([5]; AML): 66%
- viability at 20 µM ([5]; AML): 47%
- viability at 10 µM ([5]; Brain glioma): 68%
- viability at 20 µM ([5]; Brain glioma): 53%
- viability at 10 µM ([5]; Brain tumor): 65%
- viability at 20 µM ([5]; Brain tumor): 54%
- viability at 10 µM ([5]; Breast cancer): 62%
- viability at 20 µM ([5]; Breast cancer): 55%
- viability at 10 µM ([5]; CLL): 51%
- viability at 20 µM ([5]; CLL): 48%
- viability at 10 µM ([5]; CML): 75%
- viability at 20 µM ([5]; CML): 56%
- viability at 10 µM ([5]; Children hepatoblastoma): 74%
- viability at 20 µM ([5]; Children hepatoblastoma): 57%
- viability at 10 µM ([5]; Colon adenocarcinoma): 58%
- viability at 20 µM ([5]; Colon adenocarcinoma): 44%
- viability at 10 µM ([5]; Colorectal cancer): 73%
- viability at 20 µM ([5]; Colorectal cancer): 58%
- viability at 10 µM ([5]; Gastric cancer): 56%
- viability at 20 µM ([5]; Gastric cancer): 45%
- viability at 10 µM ([5]; Gastrointestinal tumor): 64%
- viability at 20 µM ([5]; Gastrointestinal tumor): 46%
- viability at 10 µM ([5]; Glioma): 78%
- viability at 20 µM ([5]; Glioma): 67%
- viability at 10 µM [5, 6]: 75%
- viability at 20 µM [5, 6]: 66%
- viability at 10 µM ([5]; Laryngeal cancer): 66%
- viability at 20 µM ([5]; Laryngeal cancer): 52%
- viability at 10 µM ([5]; Liver cancer): 64%
- viability at 20 µM ([5]; Liver cancer): 55%
- viability at 10 µM ([5]; Lung adenocarcinoma): 58%
- viability at 20 µM ([5]; Lung adenocarcinoma): 49%
- viability at 10 µM ([5]; Lung cancer): 63%
- viability at 20 µM ([5]; Lung cancer): 54%
- viability at 10 µM ([5]; Malignant melanoma): 59%
- viability at 20 µM ([5]; Malignant melanoma): 45%
- viability at 10 µM ([5]; Nasopharynx cancer): 55%
- viability at 20 µM ([5]; Nasopharynx cancer): 42%
- viability at 10 µM ([5]; Ovarian cancer): 56%
- viability at 20 µM ([5]; Ovarian cancer): 49%
- viability at 10 µM ([5]; Pancreatic cancer): 57%
- viability at 20 µM ([5]; Pancreatic cancer): 50%
- viability at 10 µM ([5]; Prostate cancer): 68%
- viability at 20 µM ([5]; Prostate cancer): 57%
- viability at 10 µM ([5]; Retinoblastoma): 56%
- viability at 20 µM ([5]; Retinoblastoma): 47%
- viability at 10 µM ([5]; Skin cancer): 56%
- viability at 20 µM ([5]; Skin cancer): 47%
